# Active and inactive are the calls of the source. No cut-off for these calls is given here.
# Assays:
# Staphylococcus aureus [1] = assay: (§1) Antibacterial activity against Staphylococcus aureus ATCC43300 infected in sepsis mouse model assessed as reduction in inflammatory cell infiltration in kidney at 10 mg/kg pre-infected with bacteria for 1 hrs followed by compound administration at 12 hrs interval for 2 days by H and E staining based analysis; assay type: functional, organism-based; conditions: time 2.0 day
# [2] = Selectivity index, ratio of HC50 for hemolytic activity in red blood cells (unknown origin) to MIC for antibacterial activity against penicillin-resistant Staphylococcus aureus ATCC43300; assay type: toxicity, cell-based, RBC; conditions: read-out: Selectivity Index
# Cell membrane [3] = assay: Induction of inner membrane permeabilization in Staphylococcus aureus ATCC43300 assessed as fold increase in fluorescence intensity at 8 microg/ml incubated for 20 mins by PI uptake assay relative to negative control; assay type: subcellular; conditions: dose 8.0 µg/ml
# Escherichia coli [4] = assay: Antibiofilm activity against Escherichia coli ATCC25922 assessed as inhibition of biofilm formation at 1 microg/ml relative to control; assay type: functional
# [5] = test system: Staphylococcus epidermidis; assay: Antibacterial activity against erythromycin-susceptible Staphylococcus epidermidis ATCC12228 by broth microdilution assay; assay type: functional
# Escherichia coli [6] = assay: Antibacterial activity against penicillin-susceptible Escherichia coli ATCC25922 by broth microdilution method; assay type: functional
# Escherichia coli [7] = assay: Induction of morphological changes in Escherichia coli ATCC25922 assessed as rough appearance of cell membrane by scanning electron microscopic analysis; assay type: functional, organism-based
# Cell membrane [8] = assay: Induction of inner membrane permeabilization in Escherichia coli ATCC25922 assessed as increase in fluorescence intensity incubated for 20 mins by PI uptake assay; assay type: subcellular; conditions: dose 0.5-8 µg/ml
# Escherichia coli [9] = assay: Antibacterial activity against Escherichia coli ATCC25922 measured after 20 passages; assay type: functional, organism-based
# Escherichia coli [10] = assay: Ratio of MBC for Escherichia coli ATCC25922 in presence of 50% serum to MBC for Escherichia coli ATCC25922 in Mueller Hinton Broth; assay type: functional
# Cell membrane [11] = assay: Disruption of cell membrane in Escherichia coli ATCC25922 assessed as appearance of blue fluorescence by DAPI staining based fluorescence microscopic analysis; assay type: subcellular
# Klebsiella pneumoniae = assay: Antibacterial activity against Klebsiella pneumoniae ATCC10031 by broth microdilution assay; assay type: functional
# Escherichia coli [12] = assay: Disruption of preformed biofilm in Escherichia coli ATCC25922 assessed as eradication of biofilm at 32 microg/ml relative to control; assay type: functional; conditions: dose 32 µg/ml
# Staphylococcus aureus [13] = assay: Bactericidal activity against Staphylococcus aureus ATCC43300 measured upto 24 hrs by time-kill kinetics assay; assay type: functional, organism-based; conditions: dose 1-8 µg/ml
# [14] = Hemolytic activity in red blood cells (unknown origin); assay type: toxicity, cell-based, Erythrocyte
# Cell membrane [15] = assay: Induction of cytoplasmic membrane depolarization in Staphylococcus aureus ATCC43300 assessed as increase in fluorescence intensity at 8 microg/ml measured after 24 mins by DiSC3(5) dye-based fluorescence assay; conditions: dose 8.0 µg/ml
# Staphylococcus aureus [16] = assay: Antibacterial activity against Staphylococcus aureus ATCC43300 infected in sepsis mouse model assessed as log reduction in bacterial load in kidney at 5 mg/kg pre-infected with bacteria for 1 hrs followed by compound administration at 12 hrs interval for 2 days relative to control; assay type: functional; conditions: time 2 day
# Escherichia coli [17] = assay: Bactericidal activity against Escherichia coli ATCC25922 assessed as log reduction in bacterial colony at 8 times of MIC measured after 6 hrs by time-kill kinetics assay; assay type: functional
# [18] = Selectivity index, ratio of HC50 for hemolytic activity in red blood cells (unknown origin) to MIC for antibacterial activity against penicillin-susceptible Escherichia coli ATCC25922; assay type: toxicity, cell-based, RBC; conditions: read-out: Selectivity Index
# Staphylococcus aureus [19] = assay: Induction of morphological changes in Staphylococcus aureus ATCC43300 assessed as collapse of cell membrane by scanning electron microscopic analysis; assay type: functional, organism-based
# Escherichia coli [20] = assay: Antibiofilm activity against Escherichia coli ATCC25922 assessed as inhibition of biofilm formation at 8 microg/ml relative to control; assay type: functional
# Enterococcus faecalis = assay: Antibacterial activity against vancomycin susceptible Enterococcus faecalis ATCC29212 by broth microdilution assay; assay type: functional
# Escherichia coli [21] = assay: Ratio of MBC for Escherichia coli ATCC25922 in presence of 50% blood to MBC for Escherichia coli ATCC25922 in Mueller Hinton Broth; assay type: functional
# Staphylococcus aureus [22] = assay: Antibacterial activity against penicillin-resistant Staphylococcus aureus ATCC43300 by broth microdilution assay; assay type: functional
# Escherichia coli [23] = assay: Antibiofilm activity against Escherichia coli ATCC25922 assessed as inhibition of biofilm formation at 16 microg/ml relative to control; assay type: functional
# [24] = Selectivity ratio of MBC for Staphylococcus aureus ATCC43300 in presence of 50% plasma to MBC for Staphylococcus aureus ATCC43300 in Mueller Hinton Broth; assay type: functional
# Staphylococcus aureus [25] = assay: Selectivity ratio of MBC for Staphylococcus aureus ATCC43300 in presence of 50% serum to MBC for Staphylococcus aureus ATCC43300 in Mueller Hinton Broth; assay type: functional
# Cell membrane [26] = assay: Disruption of cell membrane in Escherichia coli ATCC25922 assessed as appearance of red fluorescence by PI staining based fluorescence microscopic analysis; assay type: subcellular
# Escherichia coli [27] = assay: Bactericidal activity against Escherichia coli ATCC25922 in presence of 50% blood; assay type: functional
# Staphylococcus aureus [28] = assay: Antibacterial activity against Staphylococcus aureus ATCC43300 infected in sepsis mouse model assessed as reduction in spleen damage at 5 to 10 mg/kg pre-infected with bacteria for 1 hrs followed by compound administration at 12 hrs interval for 2 days by H and E staining based analysis; assay type: functional, organism-based; conditions: dose 5-10 mg/kg, time 2.0 day
# Staphylococcus aureus [29] = assay: Antibacterial activity against Staphylococcus aureus ATCC43300 infected in sepsis mouse model assessed as reduction in kidney damage at 5 to 10 mg/kg pre-infected with bacteria for 1 hrs followed by compound administration at 12 hrs interval for 2 days by H and E staining based analysis; assay type: functional, organism-based; conditions: dose 5-10 mg/kg, time 2.0 day
# Staphylococcus aureus [30] = assay: Disruption of preformed biofilm in Staphylococcus aureus ATCC43300 assessed as eradication of biofilm at 32 microg/ml relative to control; assay type: functional; conditions: dose 32 µg/ml
# Staphylococcus aureus [31] = assay: Antibacterial activity against Staphylococcus aureus ATCC43300 infected in sepsis mouse model assessed as log reduction in bacterial load in liver at 5 mg/kg pre-infected with bacteria for 1 hrs followed by compound administration at 12 hrs interval for 2 days relative to control; assay type: functional; conditions: time 2 day
# Cell membrane [32] = assay: Induction of cytoplasmic membrane depolarization in Staphylococcus aureus ATCC43300 assessed as fold increase in fluorescence intensity at 4 microg/ml measured after 24 mins by DiSC3(5) dye-based fluorescence assay relative to negative control; conditions: dose 4.0 µg/ml
# Staphylococcus aureus [33] = assay: Induction of morphological changes in Staphylococcus aureus ATCC43300 assessed as disruption of cell membrane by scanning electron microscopic analysis; assay type: functional, organism-based
# Staphylococcus aureus [34] = assay: as §1, with “spleen” for “kidney”; assay type: functional, organism-based; conditions: time 2.0 day
# Staphylococcus aureus [35] = assay: Antibiofilm activity against Staphylococcus aureus ATCC43300 assessed as inhibition of biofilm formation at 16 microg/ml relative to control; assay type: functional
# Staphylococcus aureus [36] = assay: Antibacterial activity against Staphylococcus aureus ATCC43300 infected in sepsis mouse model assessed as log reduction in bacterial load in blood at 5 mg/kg pre-infected with bacteria for 1 hrs followed by compound administration at 12 hrs interval for 2 days relative to control; assay type: functional; conditions: time 2 day
compound,measurement,setting,value
CCCCCCOc1cc[n+](CCCOc2ccc(/C=C/C(=O)c3ccc(OCCC[n+]4ccc(OCCCCCC)cc4)cc3)cc2)cc1.[Br-].[Br-],Activity,Staphylococcus aureus [1],inactive
same,selectivity ratio,[2],659
same,fold change (FC),Cell membrane [3],1.5
same,inhibition at 1 µg/mL,Escherichia coli [4],12.3%
same,MIC,[5],0.5 µg/mL
same,MIC,Escherichia coli [6],1 µg/mL
same,Activity,Escherichia coli [7],Active
same,Activity,Cell membrane [8],Dose-dependent-effect
same,Activity,Escherichia coli [9],Active
same,Ratio,Escherichia coli [10],< 2
same,Activity,Cell membrane [11],Active
same,MIC,Klebsiella pneumoniae,1 µg/mL
same,Activity,Escherichia coli [12],>49.08%
same,Activity,Staphylococcus aureus [13],Dose-dependent-effect
same,HC50,[14],329 µg/mL
same,Activity,Cell membrane [15],Active; Fluorescence Intensity Surpassed The Melittin Group
same,log(activity),Staphylococcus aureus [16],0.86
same,log(activity),Escherichia coli [17],8.31
same,selectivity ratio,[18],329
same,Activity,Staphylococcus aureus [19],Active
same,inhibition at 8 µg/mL,Escherichia coli [20],48.7%
same,MIC,Enterococcus faecalis,0.5 µg/mL
same,Ratio,Escherichia coli [21],< 2
same,MIC,Staphylococcus aureus [22],0.5 µg/mL
same,inhibition at 16 µg/mL,Escherichia coli [23],50.9%
same,Ratio,[24],<2
same,Ratio,Staphylococcus aureus [25],< 2
same,Activity,Cell membrane [26],Active
same,MIC,Escherichia coli [27],32 µg/mL
same,Activity,Staphylococcus aureus [28],Active
same,Activity,Staphylococcus aureus [29],Active
same,Activity,Staphylococcus aureus [30],>35.94%
same,log(activity),Staphylococcus aureus [31],0.91
same,fold change (FC),Cell membrane [32],5.8
same,Activity,Staphylococcus aureus [33],Active
same,Activity,Staphylococcus aureus [34],inactive
same,inhibition at 16 µg/mL,Staphylococcus aureus [35],90.9%
same,log(activity),Staphylococcus aureus [36],0.8

# Source: ChEMBL document CHEMBL6092194, “Development of membrane-targeting chalcone derivatives as antibacterial agents against multidrug-resistant bacteria” (Eur J Med Chem, 2024)
